According to patent US8673977B2, “Choline salts of succinic acid for the treatment of depression, anxiety, schizophrenia, sleep disorder, and epilepsy” (priority 2008, dated 2014):
Where two headings read alike, the source gives them in different places.

Key:
young male CD1 mice [1] = details: mean±SEM, scored during 6 min
Experimental: (A) In the forced swim test, young male CD1 mice, singly housed, were used. Mice were treated i.p. with saline (control) or 25 mg/kg compounds (I) or (II) for 7 days once-a-day and tested at 8th day. In the reference group, mice were treated i.p. with 10 mg/kg Imipramine 30 min prior the swimming test. Forced swim test was done in a glass cylinder 17 cm diameter, water height 13 cm (7 cm to the edge of a cylinder) filled with water at ambient temperature. Animals were scored during 6 min. The latency of the first floating episode was accepted as a measure of forced swim behavior. Statistical analysis was done using ANOVA and Mann-Whitney test as a post-hoc analysis.

young male CD1 mice [2] = details: mean±SEM, n=20
Experimental: (B) In the chronic stress depression model, young male CD1 mice, singly housed, were used. […] Stress procedure was used for 10 days. In the reference group, mice received Imipramine orally 8 mg/kg per day for 7 days prior the stress and then in a course on entire 10-days-stress-procedure. Animals (n=20 per group) were tested on a sucrose preference at 10th day of the stress procedure. Statistical analysis was done using ANOVA and Mann-Whitney test as a post-hoc analysis. Data are presented in Table 2 as mean±SEM of a percentage of sucrose preference.

Rats = details: rats pretreated i.p. 25 mg/kg for 7 days once-a-day; at day 8, 10 mg/kg caffeine
Experimental: Effect of the treatment of sleep disorder (insomnia) with compound II of the present invention was assessed in caffeine-induced model of insomnia. Rats were treated for 7 days once-a-day with i.p. 25 mg/kg compound II or saline (control).

[3] = test system: rats raised in social isolation (ISO); details: mean±SEM; socially isolated rats, i.p. 25 mg/kg for 7 days once-a-day; 80 dB prepulse, 110 dB pulse, prepulse latency 100 milliseconds
Experimental: Rats were treated for 7 days once-a-day with i.p. 25 mg/kg compound II or saline (control).

Stressed mice = details: mean±SEM; stressed mice from Example 2 (i.p. 25 mg/kg for 7 days prior stress); scored during 5 min
Experimental: (B) In the chronic stress depression model, young male CD1 mice, singly housed, were used. […] Stress procedure was used for 10 days.
Effect of the treatment of anxiety with compounds of the invention was assessed in rodents in light/dark transition test. Stressed mice from the Example 2 were tested in a dark/light box as described by Crawley et al., Pharmacol Biochem Behav 13, 167-70 (1980). Animals were scored during 5 min for (i) total time spent in light box and (ii) number of exits. […] Data are presented in Table 3 as mean±SEM of (i) total time spent in light box and (ii) number of exits.

[4] = test system: mice with seizures induced by pentylenetetrazol; details: i.p. 10 mg/kg for 7 days once-a-day, pentylenetetrazol administered
Experimental: Effect of the treatment of epilepsy with compounds of the invention was assessed in mice with seizures induced by pentylenetetrazol. Loscher et al., Epilepsy Res 1991, 8:171-189. Mice were treated for 7 days once-a-day with i.p. 10 mg/kg compound II or saline (control). Pentylenetetrazol was administered.

[5] = i.p. 25 mg/kg for 7 days once-a-day, tested at 8th day

| Compound | Latency of the first floating episode (young male CD1 mice [1]; [5]) | Sucrose preference (young male CD1 mice [2]; i.p. 25 mg/kg for 7 days once-a-day prior the onset of stress, tested at 10th day of stress) | sleep onset latency (SOL) after caffeine as compared to vehicle (Rats) | Prepulse inhibition [3] | Number of exits (Stressed mice) | Time (total time spent in light box) (Stressed mice) | seizures as compared to control [4] | Sucrose preference (young male CD1 mice [2]; reference group, orally 8 mg/kg per day for 7 days prior the stress and during 10-days stress, tested at 10th day) | Latency of the first floating episode (young male CD1 mice [1]; reference group, i.p. 10 mg/kg 30 min prior the swimming test) |
| --- | --- | --- | --- | --- | --- | --- | --- | --- | --- |
| C[N+](C)(C)CCO.O=C([O-])CCC(=O)O [Compound (I), monocholine salt of succinic acid] | 117 ± 18 s |  |  |  |  |  |  |  |  |
| C[N+](C)(C)CCO.C[N+](C)(C)CCO.O=C([O-])CCC(=O)[O-] [Compound (II), dicholine salt of succinic acid] | 140 ± 11 s | 72 ± 3 % | caffeine did not prolonged SOL | 51 ± 9 % | 4.8 ± 0.6 | 250 ± 11 s | significantly decreases seizures |  |  |
| CN(C)CCCN1c2ccccc2CCc2ccccc21 [Imipramine, reference compound] |  |  |  |  |  |  |  | 75 ± 4 % | 60 ± 26 s |
